Assay results as given in patent publication US7144862B2, “Orally administered peptides to ameliorate atherosclerosis” (The Regents of the University of California, priority 2000, dated 2006).

Legend:
[1] = Plasma cholesterol lipoprotein profiles (CLiP); type: in vivo, mouse; conditions: 16 weeks atherogenic diet, daily i.p.
Description: Plasma cholesterol lipoprotein profiles were measured using our recently-developed CLiP method (Garber et al. (2000) J. Lipid Res. 41:1020–1026). Briefly, 5 to 10 μl of plasma were analyzed using a single Superose 6 (Pharmacia, Piscataway N.J.) column. Immediately following the column, cholesterol reagent was introduced through a mixing tee, and the eluent:reagent mixture entered a post-column reaction coil. Cholesterol content of the eluent mixture was spectrophotometrically detected at 500 nm, and data points were collected into a computer. The resulting profiles were decomposed into component peaks and analyzed for relative area using PeakFit (SPSS Science, Chicago, Ill.); absolute cholesterol values for total cholesterol and each component peak were determined by comparison with a control sample of known values. In some cases fractions were collected to determine distribution of radioactivity. The CLiP method allowed analysis of individual mouse samples, avoiding the use of pooled samples.

[2] = target: T1, lecithin:cholesterol acyl transferase (LCAT) (Homo sapiens, UniProt P04180); experiment: Assay of LCAT activity; type: biochemical; conditions: 20 μg/ml peptide, egg PC-cholesterol vesicles
T1 construct: LCAT was isolated from fresh normolipidemic plasma by the method of Albers et al; from tissue; host or cells: fresh normolipidemic plasma
T1 sequence (P04180 25-440): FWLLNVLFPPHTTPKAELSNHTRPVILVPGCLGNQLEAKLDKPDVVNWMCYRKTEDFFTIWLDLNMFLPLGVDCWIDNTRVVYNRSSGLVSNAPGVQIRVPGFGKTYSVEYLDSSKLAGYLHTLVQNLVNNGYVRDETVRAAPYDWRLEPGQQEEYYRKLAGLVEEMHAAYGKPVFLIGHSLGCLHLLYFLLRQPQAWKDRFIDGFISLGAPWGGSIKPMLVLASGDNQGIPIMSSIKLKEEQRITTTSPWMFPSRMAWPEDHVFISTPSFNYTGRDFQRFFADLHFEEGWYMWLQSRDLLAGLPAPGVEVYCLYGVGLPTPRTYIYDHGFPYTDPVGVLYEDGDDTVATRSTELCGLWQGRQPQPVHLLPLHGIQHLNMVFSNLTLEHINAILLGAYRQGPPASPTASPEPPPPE
Description: LCAT was isolated from fresh normolipidemic plasma by the method of Albers et al. (1986) Methods Enzymol. 129: 763–783, with some modifications. The density of the plasma was adjusted to 1.21 g/ml and it was centrifuged at 175,000 g for 24 h. The LCAT containing fraction was subjected to Affi-Gel Blue chromatography followed by DE-52 chromatography. LCAT was eluted from the DE-52 column using a 75 to 200 mM NaCl gradient in Tris buffer (10 mM, pH 7.6).
The substrate was prepared by sonicating egg PC/cholesterol (90:20 mol/mol) containing trace amounts of 7α-^3H cholesterol in a Branson 250 sonifier for 12 mins to obtain small unilamellar vesicles. The substrate (50 μl) was incubated with 5 μg of peptide or human apo A-I and 50 μl of BSA (40 μg/ml) for 1 h at 37° C. The total volume was brought up to 150 μl. After incubating for 1 h, 100 μl of LCAT was added and incubated for 1 h at 37° C. and the reaction was quenched by spotting 10 μl on a silica strip. Cholesterol and cholesteryl ester were separated by thin layer chromatography of the silica strip in hexane:chloroform (2:1 v/v) mixture. […] The positions of the standards were used to cut the strip into two and the two parts were counted in scintillation fluid in a Packard Tri Carb 4530. […] The activation of LCAT by the peptides is expressed as a percentage of the total activation by apo A-I .

[3] = Antibody detection by indirect ELISA after 16 weeks of daily injection; type: in vivo, mouse; conditions: plasma at conclusion of 16-week injection period
Description: To determine whether daily injections of peptides elicited any immune response in mice, indirect ELISA titration (Engvall (1980) Meth. Enzymol. 70:419–439) was carried out with plasma taken from mice at the time of organ collection (following sixteen weeks of daily injection). Plates were coated with the injected peptides or MoAI (10 μg/ml). Plates were incubated overnight. After thorough washing with borate buffered saline (pH 8.2) containing 0.05% Tween 20, and blocking with buffer (0.1% gelatin and 0.1% BSA in borate buffer) for 1 h, 200 μl of the diluted mouse plasma (1:100 dilution) samples were serially diluted 1:1 with borate-buffered saline. Biotinylated goat antibody to mouse IgG (0.1 μg/ml) was then added to the wells and the plates were treated with SA-HRP (Streptavidin-horse radish peroxidase) for an hour and developed with ABTS and peroxide as substrate. The plates were incubated overnight at room temperature after every addition of antigen/antibody and washed thoroughly with borate buffered saline (pH 8.2) containing 0.05% Tween 20, and blocked with buffer (0.1% gelatin and 0.1% BSA in borate buffer) for 1 h before the next addition.

[4] = mouse, in vivo
Description: The 5F peptide, MoAI, and human apo A-I were labeled with ^125I by the method of Bilheimer et al. (1972) Biochim. Biophys. Acta 260: 212–221. Mice were placed on a modified Thomas-Hartroft atherogenic diet (#TD88051; Teklad, Madison, Wis.) for four weeks at which time daily intraperitoneal injections of peptide or protein dissolved in 200 μl phosphate-buffered saline (PBS) were begun. Animals injected with MoAI or human apo A-I received 50 μg per animal; those injected with 5F received 20 μg. Animals were not fasted for the kinetic studies and blood samples were taken under xylazine:ketamine anesthesia from the retro-orbital sinus at 15, 30, and 45 minutes, and 1, 1.5, 2, 3, 4, 6, 8, 12, and 24 hours following injection. Each animal provided three blood samples at different time points (all retro-orbital and alternating eyes), and at least three samples were collected (from different animals) at each time point. Samples were collected into heparinized capillary tubes, then placed in microcentrifuge tubes; the plasma was separated by centrifugation. Duplicate 10 μl aliquots of each sample were taken for radioactivity determination, using gamma counting (Cobra; Packard Instruments, Downers Grove, Ill.) for 10 minutes per sample. Total plasma volume was calculated as 4.2% body weight. Each sample was expressed as percent of injected CPM in total plasma. Free ^125I was determined by trichloroacetic acid (TCA) precipitation (1 ml of 10% TCA per 10 μl plasma sample). Fitting to the kinetic model was done using all data points, rather than averages at each time point (PKAnalyst, MicroMath Scientific Software, Salt Lake City, Utah).
Treatment groups were compared by two-tailed t-tests or one way analysis of variance (where the data were normally distributed), or by one way analysis of variance on ranks (SigmaStat; SPSS Science, Chicago, Ill.). Kinetics of peptide or protein turnover were analyzed by fitting to a first order one-compartment kinetic model assuming non-equal input and output rates (PKAnalyst; MicroMath Scientific Software, Salt Lake City, Utah).

[5] = DSC, chain melting transition of DMPC; type: physicochemical; conditions: DMPC/peptide 100:1 (mol/mol)
Description: A known amount of phospholipid was dissolved in chloroform. For one set of samples, peptide was dissolved in methanol and added to a solution of DiPoPE in chloroforn/methanol (2:1, v:v). For both, pure lipid samples and the organic solutions of lipid and peptide, solvent was removed under a slow stream of nitrogen. Residual solvent was removed under vacuum. […] For DMPC, four consecutive scans with a 60 minute equilibration time between scans were taken. DSC thermograms were analyzed using the software provided by MicroCal Inc., Amherst, Mass., and Origin, version 5.0.
The effect of these 18A analogues on the chain melting transition of multilamellar vesicles of DMPC was studied by DSC using peptide-lipid mixtures at 100:1 lipid/peptide molar ratio.

Substance: Ac-DWLKAFYDKVFEKFKEFF-NH2 [Peptide 5F, Ac-D-W-L-K-A-F-Y-D-K-V-F-E-K-F-K-E-F-F-NH2]
- HDL as percent of total cholesterol [1]: (9.24 ± 1.18%*)
- IDL + LDL as percent of total cholesterol [1]: (42.80 ± 2.51%)
- VLDL as percent of total cholesterol [1]: (47.96 ± 3.26%)
- HDL cholesterol ([1]; mean ± SEM): 17.92 ± 2.91 mg/dL
- IDL + LDL cholesterol ([1]; mean ± SEM): 83.37 ± 8.15 mg/dL
- TC (total cholesterol) ([1]; mean ± SEM): 201.63 ± 25.21 mg/dL
- VLDL cholesterol ([1]; mean ± SEM): 100.34 ± 15.72 mg/dL
- LCAT activation relative to apo A-I (100%) [2]: 80 % of apo A-I
- antibodies against the injected material [3]: No antibodies were detected
- T½ ([4]; C57BL/6J, ip): 6.22 h
- Max. % in plasma [4]: 14.29%
- TCM(° C.) ([5]; 1.5 mM DMPC, chain melting transition temperature): 23.2 °C
- ΔHCM (kcals/mol) ([5]; enthalpy of the transition): 4.9 kcals/mol
- ΔT1/2 (° C.) ([5]; width at half maximum of the transition): 0.5 °C
